In the oligonucleotide strings, read from the 5' end, every base follows the letter of its sugar. An asterisk marks phosphorothioate; unmarked linkages are phosphodiester. Other units and linkages are bracketed, terminal groups are in braces. A string of capitals states the bases alone. d = 2'-deoxy (DNA)

Series [1] deals with meltrin α mRNA. The experiment in a line: Quantitative determination of human meltrin α expression in human preadipocyte (real time PCR). In kind it is cell-based. Conditions: antisense DNA transfected human preadipocyte; sense oligo DNA group = 100%. As to the method:
First, the human preadipocyte for use in the assay (human preadipocytes-sq donor10547, POIETICS #PT-5001, Lot.3F0242, Sanko Junyaku Co., Ltd.) which had been adjusted to a cell concentration of 1×10^5 cells/mL was added to a 96 well culture plate at 1×10^2 to 1×10^4 cells/well/100 μL, and cultured overnight. In the meanwhile, the culture medium in which preadipocytes had been suspended at 1×10^5 cells/mL was added to a 6 well plate at 1600 μL/well, and growth medium was also added to the plate at 400 μL/well, and the cells were cultured overnight. 1 μg to 50 μg of synthetic oligo DNA was added to serum free adipocyte growth medium or serum. free D-MEM, and after adding 3 μL of FuGENE6 per 1 μg of oligo DNA, the mediums were allowed to stand at room temperature for 15 to 45 minutes. From the 6 well plate described above, 400 μL/well of the medium was removed and 400 μL/well of the culture medium containing the oligo DNA was added, and the plate was incubated at 37° C. for 18 hours in the presence of 5% CO2 to evaluate the level of expression of meltrin in Example 15. […]
After removing PBS from the plate, 0.5 mL/well of Trizol Reagent (Invitrogen) was added to the plate. […] After drying, the precipitate was dissolved in water not containing RNase, and absorbance at a wavelength of 260 nm was measured to determine the RNA concentration (1OD=40 μg/mL). […]

Series [2] concerns human preadipocyte. The series is described as follows: Adipocyte proliferation and differentiation, neutral fat accumulation (Adipo Red). In kind it is cell-based. As to the method: The differentiation medium was prepared by adding supplement kit PGM SingleQuots, #PT-9500, Lot.08101163 (Sanko Junyaku Co., Ltd.) to 100 mL of growth medium. 50 μL of the supernatant was removed from the 96 well plate prepared in Example 12, and 50 μL of the siRNA or the antisense oligonucleotide prepared in the differentiation medium was added, and incubation was conducted in a CO2 incubator for 5 days to 15 days.
The amount of neutral fat accumulated in the adipocyte was determined by fluorometry using Adipo Red stain.
After taking the 96 well plate out of the CO2 incubator, the plate was allowed to stand until it cooled to room temperature. The plate was centrifuged at 300 g (1200 rpm) for 10 minutes at room temperature to remove the medium. Next, the plate was gently washed with 200 μL/well of PBS (Sigma), and 200 μL/well of PBS was added to the well.
Next, 5 μL/well of Adipo Red Assay Reagent (Adipo Red, Cat. #PT-7009, Lot.3F0497, A Cambrex Company) was added, and the plate was allowed to stand at room temperature for at least 10 minutes to thereby stain the neutral fat that had accumulated in the adipocyte. The fluorescence intensity was measured in a fluorometer at an excitation wavelength of 485 nm and an emission wavelength of 535 nm to thereby determine the fat accumulation.
(§1) According to the method of Example 15, M82463 was added to the human preadipocyte incubation system at a concentration of 0.3 to 10 μg/mL so that the final concentration of the DMSO was 0.2%. As a control, a group having only the DMSO added to a final concentration of 0.2% was used.
After preparation of the antibody to the concentration of 0.100 mg/mL with physiological saline, 9 volumes of adipocyte differentiation medium was added to 1 volume of the antibody solution, and the solution was sterilized by filtering through a filter having a diameter of 0.22 μm (MILLEX-GV 0.22 μm Filter unit, 3slgv013SL, Lot. R2NN83622, MILLIPORE). […]

In series [3] the target is T1, meltrin α (Homo sapiens, UniProt O43184, E208G/T209S).
T1 construct: had been converted to mature meltrin α having the prodomain deleted (molecular weight 68 kDa); made in house; host or cells: COS-1
T1 sequence (O43184 208-738 isoform O43184-2 E208G/T209S): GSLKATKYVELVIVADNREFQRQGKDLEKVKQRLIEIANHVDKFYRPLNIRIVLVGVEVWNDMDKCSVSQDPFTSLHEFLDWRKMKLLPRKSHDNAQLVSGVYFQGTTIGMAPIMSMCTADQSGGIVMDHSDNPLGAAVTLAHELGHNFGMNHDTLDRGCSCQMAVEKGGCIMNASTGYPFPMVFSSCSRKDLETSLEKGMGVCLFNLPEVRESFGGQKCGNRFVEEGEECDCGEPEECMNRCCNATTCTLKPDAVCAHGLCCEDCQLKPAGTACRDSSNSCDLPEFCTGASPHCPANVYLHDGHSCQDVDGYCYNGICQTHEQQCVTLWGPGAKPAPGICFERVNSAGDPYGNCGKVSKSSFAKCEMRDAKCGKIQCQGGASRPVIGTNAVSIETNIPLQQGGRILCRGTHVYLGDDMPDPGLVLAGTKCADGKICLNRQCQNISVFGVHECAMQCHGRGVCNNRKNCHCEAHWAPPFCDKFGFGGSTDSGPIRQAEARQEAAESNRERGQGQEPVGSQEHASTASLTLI
The experiment in a line: Inhibition of protease activity of meltrin α (rhIGF-BP3 cleavage, western blotting). In kind it is biochemical. To be noted: low molecular weight compound 10 μg/mL; rhIGF-BP3 band. As to the method:
Thrombin (Amersham Biosciences) was added to the purified meltrin α-STFLAG prepared in Example 5, and mixture was kept at 25° C. for 15 hours. When the solution after the reaction was examined by repeating the procedure of Example 5, the human meltrin α containing the prodomain (molecular weight 92 kDa) had been converted to mature meltrin α having the prodomain deleted (molecular weight 68 kDa). For measuring the enzymatic activity of the meltrin α, the solution after the prodomain cleavage with thrombin followed by inactivation of the thrombin by 10 mM APMSF (Wako Pure Chemical Industries, Ltd.) was used. The disappearance of the thrombin activity was confirmed by using the synthetic substrate for the thrombin on the reaction solution. […]
The anti-human meltrin α antibodies produced in Examples 6 and 7 were evaluated on their activity for inhibiting protease activity of meltrin α by using the protease activity assay system of Example 9. […] After the reaction, the reaction solution was electrophoresed by SDS-PAGE, and the rhIGF-BP3 was detected by western blotting.
According to the method of Example 9, activity of the low molecular weight compound for inhibiting protease activity of the meltrin α was assayed as described below. […] After the reaction, the reaction solution was electrophoresed by SDS-PAGE, and the rhIGF-BP3 was detected by western blotting.
(In general: Immunoblotting shows a protein as a band on a membrane.)

Series [4] concerns adipocyte. The experiment in a line: Toxicity for the adipocyte (WST1 assay). Conditions: at the concentration used in the assay (0.3 to 10 μg/mL). In kind it is cell-based, human. The procedure: Toxicity of the test substance to the adipocyte was examined by WST1 assay. More specifically, Premix WST-1 Cell Proliferation Assay System (Takara Shuzo Co., Ltd.) was added at 10 μL/well, and after incubating at 37° C. for 60 minutes in a CO2 incubator, absorbance (450 nm-650 nm) was measured to examine influence on the adipocyte.
as §1
(In general: Tetrazolium dyes change colour on reduction, which living cells bring about.)

“HS0307A: phosphorothioate antisense sequence CACGGGCAGCGGGCGCGCTGCCAT near the 5′ end of the coding region of human meltrin α (antisense dC*dA*dC*dG*dG*dG*dC*dA*dG*dC*dG*dG*dG*dC*dG*dC*dG*dC*dT*dG*dC*dC*dA*dT)”: the “suppression of level of expression of the meltrin α” value in series [1] is listed as “about 70%”. In series [2] (5 days after differentiation stimulation, compared to the sense sequence group), the “accumulation of the neutral fat in the preadipocyte” value is listed as “suppressed to a greater degree”.
On to `Oc1c(C(Nc2ccccn2)c2ccccc2)ccc2cccnc12` (centres unmarked) [M82463, 7-[phenyl(pyridine-2-ylamino)methyl]quinoline-8-ol], for which the “activity for inhibiting protease activity of meltrin α” value in series [3] is “suppressed the disappearance of the rhIGF-BP3”. Moreover, in series [2] (0.3 to 10 μg/mL, DMSO 0.2%), the “adipocyte proliferation and differentiation” value was “suppressed the adipocyte proliferation and differentiation in a dose dependent manner”. In series [4], the cytotoxicity entry is listed as “no cytotoxicity was found”.

The values are drawn from US20080292619A1, “Pharmaceutical Composition Containing Meltrin Antagonist” (MOCHIDA PHARMACEUTICAL CO., LTD., priority 2004, published 2008).
